The target of test [1] is DGKα (Homo sapiens (Human), UniProt P23743). Put plainly: biochemical. It counts as biochemical. The settings on record: liposome (LIPGLO) assay; read-out: DGKα LIPGLO IC50.
The target in test [2] is human DGKζ (Homo sapiens (Human), UniProt Q13574). Description: biochemical. The settings on record: liposome (LIPGLO) assay; read-out: DGKζ LIPGLO IC50. It counts as biochemical.
Test [3] has as its system OT-1 CD8+ T cells with SIINFEKL-loaded MC38 tumor cells. Put plainly: Murine cytotoxic T lymphocyte assay (IFN-γ). It counts as cell-based, mouse. The settings on record: Mus musculus, MC-38; murine cytotoxic T lymphocyte, IFN-γ; read-out: msCTL INFg IC50. An excerpt: Assay 6: Murine Cytotoxic T Lymphocyte Assay
An antigen-specific cytolytic T-cell (CTL) assay was developed to evaluate functionally the ability of DGKα and DGKζ inhibitors to enhance effector T cell mediated tumor cell killing activity. CD8+ T-cells isolated from the OT-1 transgenic mouse recognize antigen presenting cells, MC38, that present the ovalbumin derived peptide […]. Recognition of the cognate antigen initiates the cytolytic activity of the OT-1 antigen-specific CD8+ T cells.
Functional CTL cells were generated as follows: OT-1 splenocytes from 8-12 week old mice were isolated and expanded in the presence of the […] peptide at 1 μg/mL and mIL2 at 10 U/mL. After three days, fresh media with […] was added. On day 5 of the expansion, the CD8+ T cells were isolated and ready for use. Activated CTL cells may be stored frozen for 6 months. Separately, one million MC38 tumor cells were pulsed with 1 μg/mL of […]-OVA peptide for 3 hours at 37° C. The cells were washed (3×) with fresh media to remove excess peptide. Finally, CTL cells that were pretreated with DGK inhibitors for 1 hour in a 96-well U bottom plate were combined with the antigen loaded MC38 tumor cells at a 1:10 ratio. The cells were then spun at 700 rpm for 5 min and placed in an incubator overnight at 37° C. After 24 hours, the supernatant was collected for analysis of IFN-γ cytokine levels by AlphaLisa purchased from Perkin Elmer.

The test system of test [4] is naïve human CD8 T cells. Put plainly: CellTiter-Glo CD8 T cell proliferation assay. It counts as cell-based. The settings on record: Homo sapiens, read-out: CD8 GLO Normalized EC50. The procedure: Assay 4: CellTiter-Glo CD8 T Cell Proliferation Assay
Frozen naïve human CD8 T cells were thawed in RPMI+10% FBS, incubated for 2 h in 37° C., and counted. The 384-well tissue culture plate was coated overnight at 4° C. with 20 μl anti-human CD3 at 0.1 μg/mL in plain RPMI, which was removed off the plate before 20 k/40 μL CD8 T cells with 0.5 μg/ml soluble anti-human CD28 were added to each well. The compounds were echoed to the cell plate immediately after the cells were plated. After 72 h incubation at 37° C. incubator, 10 μL CellTiter-glo reagent (Promega catalog number G7570) was added to each well. The plate was vigorously shaken for 5 mins, incubated at room temperature for another 15 mins and read on Envision for CD8 T cell proliferation. In analysis, 0.1 μg/mL anti-CD3 and 0.5 μg/mL anti-CD28 stimulated CD8 T cell signal was background.
A general note: In ATP-based viability assays light output follows the ATP content of the culture.

For test [5], the system named is Human venous whole blood (IFN-γ). Put plainly: Human whole blood IFN-γ assay. It counts as cell-based. The following applies: Homo sapiens, 24 h, human whole blood, anti-CD3 plus anti-CD28, 24 hours; read-out: INFg Whole Blood Normalized Agonist EC50. The procedure: Assay 10: Human Whole Blood IFN-γ Assay
Human venous whole blood (22.5 μL per well), obtained from healthy donors, was pre-treated with compounds for one hour at 37° C. in a humidified 95% air/5% CO2 incubator. The blood was stimulated with 2.5 μL anti-human CD3 and anti-CD28 mAb at a final concentration of 1 μg/mL each for 24 hours at 37° C. IFN-γ in the supernatants was measured using AlphLISA kit (Cat #AL217).

Experimental findings from patent US11964973B2 (priority 2019, dated 2024) are described below.

A word on the IC50: it is the concentration needed to halve the response being measured. One may read the EC50 as the concentration giving half of the maximal effect.

Chain of human DGKζ (Q13574 whole entry, looked up): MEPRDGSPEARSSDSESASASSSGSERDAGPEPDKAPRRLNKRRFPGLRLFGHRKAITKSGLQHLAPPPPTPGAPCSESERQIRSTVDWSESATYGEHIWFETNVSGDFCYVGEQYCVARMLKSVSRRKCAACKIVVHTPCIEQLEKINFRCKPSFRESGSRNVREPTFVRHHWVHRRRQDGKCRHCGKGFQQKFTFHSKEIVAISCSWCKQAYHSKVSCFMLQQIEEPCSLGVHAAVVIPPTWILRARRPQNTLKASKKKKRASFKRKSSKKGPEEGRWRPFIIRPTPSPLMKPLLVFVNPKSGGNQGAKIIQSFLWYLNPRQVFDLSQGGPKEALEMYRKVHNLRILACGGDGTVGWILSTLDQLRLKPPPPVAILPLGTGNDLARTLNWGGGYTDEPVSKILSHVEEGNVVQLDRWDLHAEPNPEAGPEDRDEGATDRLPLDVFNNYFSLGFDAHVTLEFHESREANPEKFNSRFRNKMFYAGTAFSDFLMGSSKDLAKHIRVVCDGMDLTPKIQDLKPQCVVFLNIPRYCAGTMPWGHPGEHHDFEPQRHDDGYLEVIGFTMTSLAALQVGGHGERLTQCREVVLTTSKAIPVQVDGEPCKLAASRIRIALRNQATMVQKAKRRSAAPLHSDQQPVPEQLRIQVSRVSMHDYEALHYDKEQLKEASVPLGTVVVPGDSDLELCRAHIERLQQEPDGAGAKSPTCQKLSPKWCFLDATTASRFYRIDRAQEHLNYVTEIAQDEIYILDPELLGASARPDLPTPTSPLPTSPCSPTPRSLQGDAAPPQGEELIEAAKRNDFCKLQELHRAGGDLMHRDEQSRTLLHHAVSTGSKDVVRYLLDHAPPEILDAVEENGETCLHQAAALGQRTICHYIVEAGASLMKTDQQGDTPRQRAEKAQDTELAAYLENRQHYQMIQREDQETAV
Chain of DGKα (P23743 whole entry, looked up): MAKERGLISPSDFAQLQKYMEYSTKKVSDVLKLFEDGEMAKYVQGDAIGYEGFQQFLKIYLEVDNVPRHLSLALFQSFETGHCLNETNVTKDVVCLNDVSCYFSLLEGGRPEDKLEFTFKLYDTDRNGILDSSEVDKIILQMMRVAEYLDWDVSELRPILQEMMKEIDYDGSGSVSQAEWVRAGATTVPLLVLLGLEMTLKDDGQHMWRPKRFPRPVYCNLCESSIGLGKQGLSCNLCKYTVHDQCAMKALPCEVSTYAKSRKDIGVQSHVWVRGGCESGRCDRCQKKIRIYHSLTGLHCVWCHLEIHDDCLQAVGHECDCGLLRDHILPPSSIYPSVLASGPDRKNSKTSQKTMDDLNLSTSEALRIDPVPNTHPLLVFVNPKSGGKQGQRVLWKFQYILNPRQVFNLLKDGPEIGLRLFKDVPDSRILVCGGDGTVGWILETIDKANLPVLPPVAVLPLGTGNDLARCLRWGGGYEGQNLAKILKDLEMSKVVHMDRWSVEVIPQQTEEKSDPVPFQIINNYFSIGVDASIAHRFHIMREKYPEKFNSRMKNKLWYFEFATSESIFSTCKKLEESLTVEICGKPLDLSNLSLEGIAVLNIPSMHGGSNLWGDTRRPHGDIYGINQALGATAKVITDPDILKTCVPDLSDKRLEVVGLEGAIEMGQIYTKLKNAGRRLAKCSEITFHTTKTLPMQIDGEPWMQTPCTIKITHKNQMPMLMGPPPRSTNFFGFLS

With `Cn1c(=O)c(C#N)c(N2CCC(Oc3ccc(OC(F)(F)F)cc3)CC2)c2nc(C#N)ccc21` [Example 50, 5-methyl-6-oxo-8-(4-(4-(trifluoromethoxy)phenoxy)piperidin-1-yl)-5,6-dihydro-1,5-naphthyridine-2,7-dicarbonitrile], the IC50 was found to be 1.6 µM in test [1], 12 µM in test [2] and 0.99 µM in test [3]. The values for the 50% effective concentration (EC50) in test [4] and in test [5] were 0.055 µM and 5 µM, respectively.

Turning to `Cn1c(=O)c(C#N)c(N2CCC(Oc3cccc(OC(F)(F)F)c3)CC2)c2nc(Cl)ccc21` [Example 13, 6-chloro-1-methyl-2-oxo-4-(4-(3-(trifluoromethoxy)phenoxy)piperidin-1-yl)-1,2-dihydro-1,5-naphthyridine-3-carbonitrile], the IC50 in test [1] came out at 2 µM; in test [2], 240 µM; in test [3], 1.5 µM. Besides, the figures for the EC50 in test [4] and in test [5] were 1.2 µM and 5 µM, respectively.

As for `COc1ccc(OC2CCN(c3c(C#N)c(=O)n(C)c4ccc(Cl)nc34)CC2)cc1` [Example 14, 6-chloro-4-(4-(4-methoxyphenoxy)piperidin-1-yl)-1-methyl-2-oxo-1,2-dihydro-1,5-naphthyridine-3-carbonitrile], the IC50 in test [1] came out at 0.25 µM; in test [2] it was 13 µM; in test [3], 0.83 µM. The EC50 was found to be 0.28 µM in test [4] and 7 µM in test [5].

Consider `Cn1c(=O)c(C#N)c(N2CCC(Oc3ccc(OC(F)(F)F)c(F)c3)CC2)c2nc(Cl)ccc21` [Example 17, 6-chloro-4-(4-(3-fluoro-4-(trifluoromethoxy)phenoxy)piperidin-1-yl)-1-methyl-2-oxo-1,2-dihydro-1,5-naphthyridine-3-carbonitrile], for which the results for the IC50 in test [1], in test [2] and in test [3] were 1.1 µM, 240 µM and 1.1 µM, respectively. The EC50 in test [4] is 0.47 µM; in test [5] it was 10 µM.

With `COc1ccc2c(n1)c(N1CCC(Oc3ccc(OC(F)(F)F)cc3)CC1)c(C#N)c(=O)n2C` [Example 48, 6-methoxy-1-methyl-2-oxo-4-(4-(4-(trifluoromethoxy)phenoxy)piperidin-1-yl)-1,2-dihydro-1,5-naphthyridine-3-carbonitrile], the values for the IC50 in test [1], in test [2] and in test [3] were 2.7 µM, 3.4 µM and 0.27 µM, respectively. Also, the EC50 was found to be 0.13 µM in test [4] and 6.4 µM in test [5].

Consider `Cn1c(=O)c(C#N)c(N2CCC(Oc3ccc(OC(F)(F)F)c(Cl)c3)CC2)c2nc(Cl)ccc21` [Example 42, 6-chloro-4-(4-(3-chloro-4-(trifluoromethoxy)phenoxy)piperidin-1-yl)-1-methyl-2-oxo-1,2-dihydro-1,5-naphthyridine-3-carbonitrile], for which the IC50 in test [1] came to 5.4 µM; in test [2], 240 µM; in test [3] it was 10 µM. Moreover, the EC50 in test [4] stood at 0.7 µM.

In the case of `Cc1ccc(OC2CCN(c3c(C#N)c(=O)n(C)c4ccc(Cl)nc34)CC2)cc1Cl` [Example 40, 6-chloro-4-(4-(3-chloro-4-methylphenoxy)piperidin-1-yl)-1-methyl-2-oxo-1,2-dihydro-1,5-naphthyridine-3-carbonitrile], the values for the IC50 in test [1], in test [2] and in test [3] were 0.74 µM, 9 µM and 10 µM, respectively. Also, the EC50 in test [4] came out at 1.2 µM.

As to `Cn1c(=O)c([N+](=O)[O-])c(N2CCC(Oc3ccc(OC(F)(F)F)cc3)CC2)c2cc(F)ccc21` [Example 3, 6-fluoro-1-methyl-3-nitro-4-(4-(4-(trifluoromethoxy)phenoxy)piperidin-1-yl)quinolin-2(1H)-one], the IC50 in test [1] was 0.11 µM; in test [2], 240 µM; in test [3], 1.5 µM. In addition, the figures for the EC50 in test [4] and in test [5] were 0.49 µM and 10 µM, respectively.

Regarding `Cc1cc(F)cc(OC2CCN(c3c([N+](=O)[O-])c(=O)n(C)c4ccc(F)cc34)CC2)c1` [Example 1, 6-fluoro-4-(4-(3-fluoro-5-methylphenoxy)piperidin-1-yl)-1-methyl-3-nitroquinolin-2(1H)-one], the values for the IC50 in test [1], in test [2] and in test [3] were 0.24 µM, 100 µM and 5.2 µM, respectively. In addition, the EC50 in test [4] came out at 1.6 µM; in test [5], 10 µM.

Consider `Cn1c(=O)c(C#N)c(N2CCC(Oc3ccc(C#N)c(Cl)c3)CC2)c2nc(Cl)ccc21` [Example 38, 6-chloro-4-(4-(3-chloro-4-cyanophenoxy)piperidin-1-yl)-1-methyl-2-oxo-1,2-dihydro-1,5-naphthyridine-3-carbonitrile], for which the figures for the IC50 in test [1], in test [2] and in test [3] were 1.8 µM, 9 µM and 10 µM, respectively. For the same compound, the EC50 in test [4] amounted to 1.6 µM.

For the compound `Cn1c(=O)c(C#N)c(N2CCC(Oc3ccccc3C#N)CC2)c2nc(Cl)ccc21` [Example 43, 6-chloro-4-(4-(2-cyanophenoxy)piperidin-1-yl)-1-methyl-2-oxo-1,2-dihydro-1,5-naphthyridine-3-carbonitrile], the IC50 is 1.5 µM in test [1], 27 µM in test [2] and 10 µM in test [3]. For the same compound, in test [4], the EC50 was found to be 10 µM.

Consider `Cn1c(=O)c(C#N)c(N2CCC(Oc3cccc(C#N)c3)CC2)c2nc(Cl)ccc21` [Example 34, 6-chloro-4-(4-(3-cyanophenoxy)piperidin-1-yl)-1-methyl-2-oxo-1,2-dihydro-1,5-naphthyridine-3-carbonitrile], for which the IC50 in test [1] was found to be 1.1 µM; in test [2], 9 µM; in test [3], 8.5 µM. The 50% effective concentration (EC50) in test [4] stood at 4.1 µM.

In the case of `CN(C)C(=O)c1ccc(OC2CCN(c3c(C#N)c(=O)n(C)c4ccc(Cl)nc34)CC2)cc1` [Example 25, 4-((1-(6-chloro-3-cyano-1-methyl-2-oxo-1,2-dihydro-1,5-naphthyridin-4-yl)piperidin-4-yl)oxy)-N,N-dimethylbenzamide], the IC50 in test [1] stood at 0.73 µM; in test [2] it was 240 µM; in test [3], 10 µM. In addition, the 50% effective concentration (EC50) in test [4] was found to be 1.2 µM.

`COc1cccc(OC2CCN(c3c(C#N)c(=O)n(C)c4ccc(Cl)nc34)CC2)c1` [Example 10, 6-chloro-4-(4-(3-methoxyphenoxy)piperidin-1-yl)-1-methyl-2-oxo-1,2-dihydro-1,5-naphthyridine-3-carbonitrile]: the figures for the IC50 in test [1], in test [2] and in test [3] were 0.15 µM, 2.8 µM and 4.5 µM, respectively. Besides, the EC50 in test [4] amounted to 0.14 µM; in test [5], 5 µM.

On to `Cn1c(=O)c(C#N)c(N2CCC(Oc3ccc(OC(C)(C)C)cc3)CC2)c2nc(Cl)ccc21` [Example 31, 4-(4-(4-(tert-butoxy)phenoxy)piperidin-1-yl)-6-chloro-1-methyl-2-oxo-1,2-dihydro-1,5-naphthyridine-3-carbonitrile], for which the IC50 turned out to be 0.28 µM in test [1], 11 µM in test [2] and 10 µM in test [3]. In addition, the EC50 in test [4] came out at 0.044 µM.

Consider `Cn1c(=O)c(C#N)c(N2CCC(Oc3cccc(C(F)(F)F)c3)CC2)c2nc(Cl)ccc21` [Example 24, 6-chloro-1-methyl-2-oxo-4-(4-(3-(trifluoromethyl)phenoxy)piperidin-1-yl)-1,2-dihydro-1,5-naphthyridine-3-carbonitrile], for which the IC50 is 2 µM in test [1], 27 µM in test [2] and 1.5 µM in test [3]. In addition, the half-maximal effective concentration (EC50) in test [4] was determined as 0.75 µM.
